The subject of assay [1] is cell suspension of rat neonatal brain tissue. Kind of assay: Neurosphere growth in conditioned medium of pre-treated MSC cultures (neurogenic potential in vitro). Type of assay: cell-based.
Method: 70-80% confluent cultures of bone marrow derived MSCs were cultured in vitro in Dulbecco's modified Eagle's medium (DMEM) without Fetal Bovine Serum (FBS) with and supplemented with the addition of one of the following compounds: None, LiCl (2 mM), PACAP27 (20 nM) or DHEA (1 mM). After 3 days medium was changed with fresh ingredients and cultures were allowed to grow for an additional 24 hours. After 24 hours plates were washed twice with PBS and conditioning medium (C.M.) containing none of the above compounds was placed for additional 24 hours. Conditioned medium harvested from these cultures after 24 hours was filtered in 0.2 um filter supplemented with 1% B27 nutrients mix and used as culture medium for a cell suspension of rat neonatal brain tissue in 24 well plates (10^4 cells/well). […]
The number of developing neurospheres in each conditioned medium type was counted after 5 days of culture and provided an indication of the neurogenic potential of the MSCs culture from which the CM was harvested. […]
The number of developing neurospheres in each conditioned medium type was counted and provided an indication of the neurogenic potential of the MSCs culture from which the C.M. was harvested.
Assay [2] concerns murine model of schizophrenia (ketamine-injected female ICR pups). In words: Pre-pulse inhibition (PPI) in ketamine-injected pups, murine model of schizophrenia. Type of assay: in vivo, mouse. The settings on record: Example 6, intraperitoneal 12 days course. How it is done:
Prepulse inhibition (PPI) test was conducted in startle device (Hamilton Kinder, Poway, Calif.) that consists of a plexiglas cylinder (10×10×5 cm) adapted for mouse size in order to restrict a mouse to stand up on its hind legs and enclosed in a ventilated sound attenuated compartment with a high-frequency loudspeaker producing all acoustic stimuli. The background noise was 65 dB. Movements within the cylinder were detected and transduced by a piezoelectric platform and recorded on a computer. Each trial was initiated with 5 minutes acclimation period followed by five startle pulse alone (ASR) successive testing trials and finishing with final five startle pulses alone. Auditory testing included startle pulse alone (ASR, 120 dB/40 msec) plus three different prepulse sessions in which either 20-msec-long 70, 74 and 82 dB stimuli were preceded the 120 dB pulse by 100 msec, with the alternate background noise measurement set as the baseline movements in the cylinder. All trials followed in a pseudo-random order and the average inter-trial interval (ITI) was […]. PPI was defined as the percentage of the decreased in the ratio between the startle magnitude in the presence of the prepulse and the magnitude in the absence of the prepulse (100−(100× magnitude on prepulse+pulse trial/magnitude on pulse trial)). […]

For the compound “HSDGIFTDSYSRYRKQMAVKKYLAAVL [PACAP (P27), fragment of 27 amino acid residues corresponding to amino acids 132-158 of human PACAP]”, the “number of developing neurospheres” value in assay [1] (C.M. of MSC cultures treated with the agent (PACAP27 20 nM, DHEA 1 mM) vs non-treated cultures (C.M. alone), FIG. 2) was “clear advantage”. Turning to `[Cl-].[Li+]` [LiCl, lithium chloride], the “neurogenic activity of the MSCs, in vitro” value in assay [1] (incubation of MSCs in culture with the agent) was “enhanced the neurogenic activity”.

For `CN1CCN(C2=Nc3cc(Cl)ccc3Nc3ccccc32)CC1` [Clozapine, clozapine], the “PPI vs Ket control” value in assay [2] (2.5 months after the treatment course ended, FIG. 17) is given as “no significant effect”; in assay [2] (6 weeks after the course ended, FIG. 16), “no significant effect”.

The record behind these values is patent US20140105871A1, “Use Of Mesenchymal Stem Cells For The Improvement Of Affective And Cognitive Function” (priority 2011, published 2014).
